#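 Five concentrations, 48 hours, 96-well plates. The concentration for 50% growth inhibition is given as GI50. Definition used: TGI = concentration required for complete inhibition of growth.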
# Legend:
# Assay in all cases: growth of human tumour cells (NCI), 48 h
# PC-3 prostate = tested on: PC-3 prostate
# SW-620 colon = tested on: SW-620 colon
# MDA-MB-231 breast = tested on: MDA-MB-231 breast
# NCI-H23 lung = tested on: NCI-H23 lung
# UO-31 renal = tested on: UO-31 renal
# MDA-MB-435 = tested on: MDA-MB-435
# U251 CNS = tested on: U251 CNS
# UACC-257 melanoma = tested on: UACC-257 melanoma
# A549 NSCLC = tested on: A549 NSCLC
# BT-549 breast = tested on: BT-549 breast
# OVCAR-5 ovarian = tested on: OVCAR-5 ovarian
# DU-145 prostate = tested on: DU-145 prostate
# NCI-H460 lung = tested on: NCI-H460 lung
# CAKI-1 renal = tested on: CAKI-1 renal
# SF-295 CNS = tested on: SF-295 CNS
# SK-MEL-2 melanoma = tested on: SK-MEL-2 melanoma
# OVCAR-8 ovarian = tested on: OVCAR-8 ovarian
# HCT-116 colon = tested on: HCT-116 colon
# HOP-62 NSCLC = tested on: HOP-62 NSCLC
# MALME-3M melanoma = tested on: MALME-3M melanoma
# KM12 colon = tested on: KM12 colon
# COLO 205 colon = tested on: COLO 205 colon
# OVCAR-3 ovarian = tested on: OVCAR-3 ovarian
# RXF 393 renal = tested on: RXF 393 renal
# NCI-H226 lung = tested on: NCI-H226 lung
# HL-60(TB) leukemia = tested on: HL-60(TB) leukemia
# SK-OV-3 ovarian = tested on: SK-OV-3 ovarian
# MCF7 breast = tested on: MCF7 breast
# OVCAR-4 ovarian = tested on: OVCAR-4 ovarian
# SK-MEL-5 melanoma = tested on: SK-MEL-5 melanoma
# ACHN renal = tested on: ACHN renal
# K-562 leukemia = tested on: K-562 leukemia
# SNB-75 CNS = tested on: SNB-75 CNS
# SNB-19 CNS = tested on: SNB-19 CNS
# MOLT-4 leukemia = tested on: MOLT-4 leukemia
# HT29 colon = tested on: HT29 colon
# TK-10 renal = tested on: TK-10 renal
# LOX IMVI melanoma = tested on: LOX IMVI melanoma
# SF-539 CNS = tested on: SF-539 CNS
# 786-0 renal = tested on: 786-0 renal
# HS 578T breast = tested on: HS 578T breast
# NCI/ADR-RES ovarian = tested on: NCI/ADR-RES ovarian
# NCI-H522 lung = tested on: NCI-H522 lung
# T-47D breast = tested on: T-47D breast
# UACC-62 melanoma = tested on: UACC-62 melanoma
# SF-268 CNS = tested on: SF-268 CNS
# HCC-2998 colon = tested on: HCC-2998 colon
# HOP-92 NSCLC = tested on: HOP-92 NSCLC
# IGROV1 ovarian = tested on: IGROV1 ovarian
# CCRF-CEM leukemia = tested on: CCRF-CEM leukemia
# RPMI-8226 leukemia = tested on: RPMI-8226 leukemia
# HCT-15 colon = tested on: HCT-15 colon
# SK-MEL-28 melanoma = tested on: SK-MEL-28 melanoma
# SN12C renal = tested on: SN12C renal
smiles,measurement,setting,value
O=C1c2ccccc2-c2nnc(-c3ccc(Br)cc3)cc21,GI50,PC-3 prostate,> 100 µM
same,TGI,PC-3 prostate,> 100 µM
same,GI50,SW-620 colon,> 100 µM
same,TGI,SW-620 colon,> 100 µM
same,GI50,MDA-MB-231 breast,> 100 µM
same,TGI,MDA-MB-231 breast,> 100 µM
same,GI50,NCI-H23 lung,> 100 µM
same,TGI,NCI-H23 lung,> 100 µM
same,GI50,UO-31 renal,> 100 µM
same,TGI,UO-31 renal,> 100 µM
same,GI50,MDA-MB-435,> 100 µM
same,TGI,MDA-MB-435,> 100 µM
same,GI50,U251 CNS,> 100 µM
same,TGI,U251 CNS,> 100 µM
same,GI50,UACC-257 melanoma,> 100 µM
same,TGI,UACC-257 melanoma,> 100 µM
same,GI50,A549 NSCLC,> 100 µM
same,TGI,A549 NSCLC,> 100 µM
same,GI50,BT-549 breast,> 100 µM
same,TGI,BT-549 breast,> 100 µM
same,GI50,OVCAR-5 ovarian,> 100 µM
same,TGI,OVCAR-5 ovarian,> 100 µM
same,GI50,DU-145 prostate,> 100 µM
same,TGI,DU-145 prostate,> 100 µM
same,GI50,NCI-H460 lung,> 100 µM
same,TGI,NCI-H460 lung,> 100 µM
same,GI50,CAKI-1 renal,> 100 µM
same,TGI,CAKI-1 renal,> 100 µM
same,GI50,SF-295 CNS,> 100 µM
same,TGI,SF-295 CNS,> 100 µM
same,GI50,SK-MEL-2 melanoma,> 100 µM
same,TGI,SK-MEL-2 melanoma,> 100 µM
same,GI50,OVCAR-8 ovarian,> 100 µM
same,TGI,OVCAR-8 ovarian,> 100 µM
same,GI50,HCT-116 colon,> 100 µM
same,TGI,HCT-116 colon,> 100 µM
same,GI50,HOP-62 NSCLC,> 100 µM
same,TGI,HOP-62 NSCLC,> 100 µM
same,GI50,MALME-3M melanoma,> 100 µM
same,TGI,MALME-3M melanoma,> 100 µM
same,GI50,KM12 colon,> 100 µM
same,TGI,KM12 colon,> 100 µM
same,GI50,COLO 205 colon,> 100 µM
same,TGI,COLO 205 colon,> 100 µM
same,GI50,OVCAR-3 ovarian,> 100 µM
same,TGI,OVCAR-3 ovarian,> 100 µM
same,GI50,RXF 393 renal,> 100 µM
same,TGI,RXF 393 renal,> 100 µM
same,GI50,NCI-H226 lung,> 100 µM
same,TGI,NCI-H226 lung,> 100 µM
same,GI50,HL-60(TB) leukemia,> 100 µM
same,TGI,HL-60(TB) leukemia,> 100 µM
same,GI50,SK-OV-3 ovarian,> 100 µM
same,TGI,SK-OV-3 ovarian,> 100 µM
same,GI50,MCF7 breast,> 100 µM
same,TGI,MCF7 breast,> 100 µM
same,GI50,OVCAR-4 ovarian,> 100 µM
same,TGI,OVCAR-4 ovarian,> 100 µM
same,GI50,SK-MEL-5 melanoma,> 100 µM
same,TGI,SK-MEL-5 melanoma,> 100 µM
same,GI50,ACHN renal,> 100 µM
same,TGI,ACHN renal,> 100 µM
same,GI50,K-562 leukemia,> 100 µM
same,TGI,K-562 leukemia,> 100 µM
same,GI50,SNB-75 CNS,> 100 µM
same,TGI,SNB-75 CNS,> 100 µM
same,GI50,SNB-19 CNS,> 100 µM
same,TGI,SNB-19 CNS,> 100 µM
same,GI50,MOLT-4 leukemia,> 100 µM
same,TGI,MOLT-4 leukemia,> 100 µM
same,GI50,HT29 colon,> 100 µM
same,TGI,HT29 colon,> 100 µM
same,GI50,TK-10 renal,> 100 µM
same,TGI,TK-10 renal,> 100 µM
same,GI50,LOX IMVI melanoma,> 100 µM
same,TGI,LOX IMVI melanoma,> 100 µM
same,GI50,SF-539 CNS,> 100 µM
same,TGI,SF-539 CNS,> 100 µM
same,GI50,786-0 renal,> 100 µM
same,TGI,786-0 renal,> 100 µM
same,GI50,HS 578T breast,> 100 µM
same,TGI,HS 578T breast,> 100 µM
same,GI50,NCI/ADR-RES ovarian,> 100 µM
same,TGI,NCI/ADR-RES ovarian,> 100 µM
same,GI50,NCI-H522 lung,> 100 µM
same,TGI,NCI-H522 lung,> 100 µM
same,GI50,T-47D breast,48.8 µM
same,TGI,T-47D breast,> 100 µM
same,GI50,UACC-62 melanoma,> 100 µM
same,TGI,UACC-62 melanoma,> 100 µM
same,GI50,SF-268 CNS,> 100 µM
same,TGI,SF-268 CNS,> 100 µM
same,GI50,HCC-2998 colon,> 100 µM
same,TGI,HCC-2998 colon,> 100 µM
same,GI50,HOP-92 NSCLC,> 100 µM
same,TGI,HOP-92 NSCLC,> 100 µM
same,GI50,IGROV1 ovarian,> 100 µM
same,TGI,IGROV1 ovarian,> 100 µM
same,GI50,CCRF-CEM leukemia,> 100 µM
same,TGI,CCRF-CEM leukemia,> 100 µM
same,GI50,RPMI-8226 leukemia,> 100 µM
same,TGI,RPMI-8226 leukemia,> 100 µM
same,GI50,HCT-15 colon,> 100 µM
same,TGI,HCT-15 colon,> 100 µM
same,GI50,SK-MEL-28 melanoma,> 100 µM
same,TGI,SK-MEL-28 melanoma,> 100 µM
same,GI50,SN12C renal,> 100 µM
same,TGI,SN12C renal,> 100 µM

# Source: PubChem BioAssay (NCI)
